Results as given in PubChem BioAssay AID643 (Vanderbilt High Throughput Screening Facility, 2007).
Active and inactive are the calls of the source. No rule for the calls is given here.

Biological target: Muscarinic acetylcholine receptor M4 (Mus musculus) (UniProt P32211)
Test: M4 muscarinic receptor activation by allosteric ligands – cell-based, confirmation (AID 643)
Conditions: HEK293 cells expressing M4, thallium flux fluorescence, 2 min; hits give high values

Chain of Muscarinic acetylcholine receptor M4 (Mus musculus) (P32211 whole entry, looked up): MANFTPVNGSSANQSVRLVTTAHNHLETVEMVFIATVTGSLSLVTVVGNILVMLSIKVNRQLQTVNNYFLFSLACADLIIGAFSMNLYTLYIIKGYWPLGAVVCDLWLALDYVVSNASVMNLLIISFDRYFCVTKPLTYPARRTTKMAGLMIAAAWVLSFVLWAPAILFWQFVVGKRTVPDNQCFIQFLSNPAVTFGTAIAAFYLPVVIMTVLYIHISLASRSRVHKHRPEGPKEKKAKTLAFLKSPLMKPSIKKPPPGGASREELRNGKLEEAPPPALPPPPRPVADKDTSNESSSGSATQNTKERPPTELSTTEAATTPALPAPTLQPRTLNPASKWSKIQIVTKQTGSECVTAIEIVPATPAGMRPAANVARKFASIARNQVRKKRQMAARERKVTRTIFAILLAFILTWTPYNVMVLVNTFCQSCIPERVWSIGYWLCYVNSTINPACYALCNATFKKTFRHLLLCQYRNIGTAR

| Compound | response slope |
| --- | --- |
| CCOC(=O)c1cnn2c1[nH]c(=O)c1ccccc12 | 0.00865 |
| Cc1ccc(CNC(=O)c2cc3c(=O)n4ccccc4nc3n(CC3CCCO3)c2=N)cc1 (stereo not given) | 0.00307 (inactive) |
| CCCCCCc1cc2cc(-c3nnc(-c4ccccc4O)o3)c(=O)oc2cc1O | 0.0548 |
| S=c1nc(C2CC2)[nH]c2ccccc12 | -0.00904 (inactive) |
| C/C(CC1(O)C(=O)N(Cc2ccccc2)c2ccccc21)=N\O (stereo not given) | 0.00834 |
| Cc1ccccc1-n1nc(C)c2cc(C(=O)NCc3cccnc3)sc21 | 0.00964 |
| CCOc1ccccc1OCCCCN1CCCC1 | 0.0043 (inactive) |
| Cc1ccc(Cl)cc1N1CCN(C(=O)CN2C(=O)c3cccc4cccc2c34)CC1 | 0.00517 (inactive) |
| CCOC(=O)C1=C[C@]2(CC)CCCN3CCc4c(n1c1ccccc41)[C@@H]32 | 0.00841 |
| O=c1oc2c3c4c(cc2c(C(F)(F)F)c1CCN1CCOCC1)CCCN4CCC3 | 0.0204 |
| Cc1c2ccncc2c(C)c2c1[nH]c1ccccc12 | 0.0125 |
| COc1ccc(-c2noc(CSc3nc4ccccc4c(=O)n3-c3ccccc3)n2)cc1OC | 0.00773 |
| CCN(CC)C(=O)c1sc2nc(-c3cccs3)cc(-c3cccs3)c2c1N | -0.000749 (inactive) |
| CCCCNC(=O)Nc1ccnn1C1CCCCC1 | 0.00873 |
| O=c1c2ccccc2nc(-c2cccc(Cl)c2)n1O | 0.00746 |
| Cc1ccc(-c2nn(-c3ccccc3)cc2/C=C(\C#N)c2cccc(C#N)c2)o1 | 0.0107 |
| C[C@H]1OC[C@@H](C[N+](C)(C)C)O1 | 0.0167 |
| Cc1ccc(S(=O)(=O)/C(C#N)=C/c2c(N3CCN(C)CC3)nc3c(C)cccn3c2=O)cc1 | 0.00236 (inactive) |
| CC(=O)OC(C)C[N+](C)(C)C (stereo not given) | 0.00597 (inactive) |
| O=C(Nc1nc(-c2ccc(S(=O)(=O)N3CCCC3)cc2)cs1)C1COc2ccccc2O1 (stereo not given) | 0.00604 (inactive) |
| COc1cc(/C=C/C(=O)CC(=O)/C=C/c2ccc(O)c(OC)c2)ccc1O | 0.00973 |
| O=C(O)c1cc(O)c2c(c1)C(=O)c1cccc(O)c1C2=O | 0.00514 (inactive) |
| CNS(=O)(=O)c1cccc(C(=O)OCC(=O)c2cc(C)n(-c3ccc4c(c3)OCO4)c2C)c1 | 0.00508 (inactive) |

| Compound | response slope |
| --- | --- |
| CN(C)c1ccc(/C=C/C(O)=C2/C(=O)N(C)C3(C)CC2c2ccccc2O3)cc1 (stereo not given) | 0.00464 (inactive) |
| Fc1cccc2sc(Nc3nnc(-c4ccco4)o3)nc12 | 0.0206 |
| O=C(Nc1nc(=O)c2ccccc2s1)c1ccccc1 | 0.00981 |
| CC(=O)c1c(C)c2c(n1CCN(C)C)CCCC2 | 0.00747 |
| CCOC(=O)CC(=O)CSc1nc(-c2cccnc2)ccc1C#N | 0.00405 (inactive) |
| CCN(CC)c1ccc2cc(-c3nc4ccccc4[nH]3)c(=O)oc2c1 | 0.0191 |
| Clc1ccccc1OCCCCn1ccnc1 | 0.00392 (inactive) |
| CCOc1ccc(-n2c(O)c(C=Nc3ccc(N(CC)CC)cc3)c(=O)[nH]c2=O)cc1 | -0.00673 (inactive) |
| COc1ccc(CCn2c(=N)c(C(=O)NCc3ccco3)cc3c(=O)n4ccccc4nc32)cc1 | 0.000825 (inactive) |
| Cc1csc(NC(=O)c2sc3nc(-c4cccs4)ccc3c2N)n1 | 0.00327 (inactive) |
| N#Cc1c(NC(=O)c2ccc(Br)o2)n(-c2ccccc2)c2nc3ccccc3nc12 | 0.00921 |
| CN(C)C(CNC(=O)Nc1cccc(Cl)c1)c1cccnc1 (stereo not given) | 0.00144 (inactive) |
| Cc1cccc2sc(NC(=O)Cn3cccc3)nc12 | 0.0102 |
| Cc1ccc(SCc2c(C#N)c3ccccc3n2C)cc1 | 0.00835 |
| O=C(Nc1nc(-c2ccc(S(=O)(=O)N3CCCCCC3)cc2)cs1)c1cccs1 | 0.0142 |
| CCc1cccc(NC(=O)Cn2cc3c(n2)CCCC3)c1 | 0.00695 (inactive) |
| Cc1nn(-c2ccc(Cl)cc2)c2sc(C(=O)N3CCN(c4ccccn4)CC3)cc12 | 0.00468 (inactive) |
| CCOC(=O)c1cc(-c2nnc(-c3ccc(Oc4ccccc4)cc3)o2)c(C)nc1C | 0.0113 |
| COc1cc(OC)cc(-c2nnc(Nc3nc4c(F)cccc4s3)o2)c1 | 0.0119 |
| CCCCN(CCCC)c1nc2ccccc2nc1C(C#N)C(=O)NCCCOC (stereo not given) | 0.00562 (inactive) |
| Cc1c(C#N)sc2nc(-c3ccccc3)nc(N3CCCC3)c12 | 0.0119 |
| CCn1c(SC(C)C(=O)O)nc2sc3c(c2c1=O)CCC3 (stereo not given) | 0.0132 |
